Active and inactive are the calls of the source. No cut-off for these calls is given here.

Experiment [1] is described as follows: Inhibition of chymotrypsin-like activity of rabbit erythrocyte 20S proteasome beta5 subunit using Suc-LLVY-AMC as substrate preincubated for 15 mins followed by substrate addition measured after 45 mins by fluorescence assay. More on the design: species or system Oryctolagus cuniculus.
The species entered for experiment [2] is Oryctolagus cuniculus. Description: Inhibition of trypsin-like activity of rabbit erythrocyte 20S proteasome beta2 subunit at 100 uM using BocLRR-AMC as substrate preincubated for 5 mins followed by substrate addition measured after 45 mins by fluorescence assay.
The species named for experiment [3] is Oryctolagus cuniculus. The experiment in a line: Inhibition of caspase-like activity of rabbit erythrocyte 20S proteasome beta1 subunit at 100 uM using Z-LLE-betaNA as substrate preincubated for 15 mins followed by substrate addition measured after 45 mins by fluorescence assay.
The nature of experiment [4]: Inhibition of caspase-like activity of rabbit erythrocyte 20S proteasome beta1 subunit using Z-LLE-betaNA as substrate preincubated for 15 mins followed by substrate addition measured after 45 mins by fluorescence assay. More on the design: species or system Oryctolagus cuniculus.
For experiment [5], the species on record is Oryctolagus cuniculus. The experiment in a line: Inhibition of chymotrypsin-like activity of rabbit erythrocyte 20S proteasome beta5 subunit at 100 uM using Suc-LLVY-AMC as substrate preincubated for 15 mins followed by substrate addition measured after 45 mins by fluorescence assay.
Experiment [6] concerns the target Cathepsin B (Homo sapiens) (UniProt P07858). The experiment in a line: Inhibition of human hepatocyte cathepsin B protease using Z-RR-AMC as substrate by fluorescence assay.
Experiment [7] concerns the target T1, Calpain-1 catalytic subunit (Homo sapiens) (UniProt P07384).
T1 sequence (whole entry): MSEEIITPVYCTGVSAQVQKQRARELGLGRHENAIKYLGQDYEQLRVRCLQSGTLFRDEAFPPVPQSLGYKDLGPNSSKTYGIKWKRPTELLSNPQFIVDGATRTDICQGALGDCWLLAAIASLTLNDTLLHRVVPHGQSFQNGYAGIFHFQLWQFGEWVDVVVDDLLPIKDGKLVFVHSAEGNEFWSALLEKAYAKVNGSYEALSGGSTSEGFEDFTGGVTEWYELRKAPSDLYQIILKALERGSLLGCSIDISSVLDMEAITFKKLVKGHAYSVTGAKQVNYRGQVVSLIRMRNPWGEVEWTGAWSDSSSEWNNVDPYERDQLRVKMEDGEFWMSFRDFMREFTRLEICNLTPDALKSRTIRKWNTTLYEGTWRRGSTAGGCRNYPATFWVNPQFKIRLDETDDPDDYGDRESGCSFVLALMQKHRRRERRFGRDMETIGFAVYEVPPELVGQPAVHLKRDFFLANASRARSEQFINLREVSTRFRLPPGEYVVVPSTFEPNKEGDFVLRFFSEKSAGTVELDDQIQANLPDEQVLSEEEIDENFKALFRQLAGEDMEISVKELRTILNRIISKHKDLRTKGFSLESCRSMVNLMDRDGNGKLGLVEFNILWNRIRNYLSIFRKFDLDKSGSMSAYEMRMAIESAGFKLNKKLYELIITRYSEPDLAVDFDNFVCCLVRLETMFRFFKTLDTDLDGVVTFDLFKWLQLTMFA
Description: Inhibition of human erythrocyte calpain 1 protease using Suc-LLVY-AMC as substrate by fluorescence assay.

For experiment [8], the system named is HeLa. The experiment in a line: Antiproliferative activity against human HeLa cells assessed as fragmented nuclei at 50 uM after 72 hrs by microscopic method. Format: functional, cell-based.
The test system of experiment [9] is HeLa. Description: Antiproliferative activity against human HeLa cells after 72 hrs by XTT assay. The experiment is classed as functional, cell-based. On the technique in general: Formazan colour is commonly taken as a measure of viable cells.
Experiment [10] deals with HeLa. The experiment in a line: Antiproliferative activity against human HeLa cells at 10 uM after 72 hrs by microscopic method. Format: functional, cell-based.
For experiment [11], the system named is HeLa. Description: Cytotoxicity against human HeLa cells at 10 uM after 72 hrs by XTT assay. Format: functional, cell-based.
The test system of experiment [12] is Rattus norvegicus. The experiment in a line: In vivo antiproliferative activity against Wistar rat bone marrow cells from femora assessed as inhibition of cell division measured by counting metaphase plates administered at 0.2 mg per rat, ip by light microscopic method. Details: scale not given: the % may be the effect or the level left.
For experiment [13], the system named is Rattus norvegicus. The experiment in a line: In vivo antiproliferative activity against Wistar rat bone marrow cells from femora assessed as inhibition of cell division measured by counting metaphase plates administered at 2 mg per rat, ip by light microscopic method. Details: scale not given: the % may be the effect or the level left.
Experiment [14] relates to Rattus norvegicus. The experiment in a line: In vivo antiproliferative activity against ip dosed Wistar rat bone marrow cells from femora assessed as inhibition of cell division measured by counting metaphase plates by light microscopic method. The experiment is classed as functional, organism-based.

In the case of `OC(CNCC1(c2cccs2)CCOCC1)COc1ccc(Cl)cc1` (stereo not drawn), the IC50 (usually the concentration that gives 50% inhibition) in experiment [1] was 40 µM. For the same compound, the inhibition (usually the drop in the measured response relative to a control, in per cent) in the experiment listed under Oryctolagus cuniculus [2] stood at 53%. The inhibition result in the experiment listed under Oryctolagus cuniculus [3] was “inactive”.

Turning to `Cc1ccc(OCC(O)CNCC2(c3cccs3)CCCCC2)cc1` (stereo not drawn), the IC50 in experiment [1] is 15.5 µM; in [4], 30 µM. Besides, the inhibition in the experiment filed under Oryctolagus cuniculus [2] stood at 36%.

For the compound `NCC1(c2cccs2)CCCCC1`, the inhibition entry in the experiment filed under Oryctolagus cuniculus [5], in the experiment filed under Oryctolagus cuniculus [2] and in the experiment filed under Oryctolagus cuniculus [3] was “inactive” in each case.

Consider `Cc1ccc(OCC(O)CNCC2(c3cccs3)CCCC2)cc1` (stereo not drawn), for which the IC50 in experiment [1] was 15.4 µM; in experiment [4], 24.2 µM. Besides, the inhibition in the experiment listed under Oryctolagus cuniculus [2] amounted to 38%.

For `COc1ccccc1OCC(O)CNCC1(c2cccs2)CCCC1` (stereo not drawn), the half-maximal inhibitory concentration (IC50) turned out to be 37.2 µM in [1] and 36 µM in experiment [4]. In the experiment filed under Oryctolagus cuniculus [2], this compound displayed an inhibition of 48%.

`O=C(O)CSc1cc(NS(=O)(=O)c2cccs2)c2ccccc2c1O` registered a 50% inhibitory concentration (IC50) in experiment [1] of 3 µM.

Consider `OC(CNCC1(c2cccs2)CCCC1)COc1ccccc1` (stereo not drawn), for which the inhibition result in experiment [6] and in [7] was “inactive” throughout. Further, the 50% inhibitory concentration (IC50) is 19.3 µM in experiment [1] and 66.5 µM in experiment [4]. In addition, the inhibition in the experiment listed under Oryctolagus cuniculus [2] is 41%.

`Cc1ccc(OCC(O)CNCC2(c3cccs3)CCOCC2)cc1` (stereo not drawn) returned an IC50 in experiment [1] of 80 µM. Besides, the inhibition in the experiment listed under Oryctolagus cuniculus [2] worked out at 49%. For the same compound, the inhibition result in the experiment filed under Oryctolagus cuniculus [3] was “inactive”.

Regarding `OC(CNCC1(c2cccs2)CCOCC1)COc1ccccc1` (stereo not drawn), the inhibition was found to be 31% in the experiment filed under Oryctolagus cuniculus [5], 39% in the experiment filed under Oryctolagus cuniculus [2] and 36% in the experiment filed under Oryctolagus cuniculus [3].

Compound `CC1(C)OC(=O)c2c1ccn(CCc1ccccc1)c2=O` gave an IC50 in experiment [4] of 48 µM.

As for `NCC1(c2cccs2)CCOCC1`, the inhibition entry in the experiment filed under Oryctolagus cuniculus [5], in the experiment filed under Oryctolagus cuniculus [2] and in the experiment filed under Oryctolagus cuniculus [3] was “inactive” in each case.

For the compound `OC(CNCC1(c2cccs2)CCCCC1)COc1ccccc1` (stereo not drawn), the values for the 50% inhibitory concentration (IC50) in experiment [1] and in experiment [4] were 14.9 µM and 18.1 µM, respectively. Moreover, the inhibition result in the experiment filed under Oryctolagus cuniculus [2] was “inactive”.

Take `NCC1(c2cccs2)CCCC1`: the inhibition in the experiment listed under Oryctolagus cuniculus [5] stood at 26%. The inhibition entry in the experiment filed under Oryctolagus cuniculus [2] and in the experiment filed under Oryctolagus cuniculus [3] was “inactive” throughout.

For `OC(CNCC1(c2cccs2)CCCC1)COc1ccc(Cl)cc1` (stereo not drawn), the outcome with HeLa [8] was Active. Further, the Activity result with HeLa [9] was “Dose-dependent effect”; in the experiment with Rattus norvegicus [12], 50%; in the experiment on Rattus norvegicus [13], 75%; with Rattus norvegicus [14], “Dose-dependent effect”. For the same compound, the result in the experiment with HeLa [10] and in the experiment on HeLa [11] was inactive. For the same compound, the inhibition entry in [6] and in experiment [7] was “inactive” each time. The IC50 in [1] worked out at 15.8 µM; in [4] it was 18 µM. The compound also came in with an inhibition in the experiment filed under Oryctolagus cuniculus [2] of 42%.

On to `COc1ccccc1OCC(O)CNCC1(c2cccs2)CCCCC1` (stereo not drawn), for which the results for the 50% inhibitory concentration (IC50) in experiment [1] and in experiment [4] were 17.1 µM and 22 µM, respectively. Further, in the experiment listed under Oryctolagus cuniculus [2], the inhibition is 40%.

With `COc1ccccc1OCC(O)CNCC1(c2cccs2)CCOCC1` (stereo not drawn), the inhibition entry in the experiment filed under Oryctolagus cuniculus [5], in the experiment filed under Oryctolagus cuniculus [2] and in the experiment filed under Oryctolagus cuniculus [3] was “inactive” throughout.

As to `OC(CNCC1(c2cccs2)CCCCC1)COc1ccc(Cl)cc1` (stereo not drawn), the IC50 in experiment [1] was 18 µM; in [4], 12.8 µM. Also, the inhibition entry in the experiment listed under Oryctolagus cuniculus [2] is “inactive”.

Values taken from ChEMBL document CHEMBL4184157, “Phenoxypropanolamine derivatives as selective inhibitors of the 20S proteasome β1 and β5 subunits” (Bioorg Med Chem Lett, 2017).
